Values quoted from earlier work, collected in patent US10299480B2 (priority 2014, dated 2019).

Columns and labels:
herpes virus = settings: 10 minute exposure
adenovirus = settings: 10 minute exposure, same conditions

N=C(NCCCCCCNC(=N)NC(=N)Nc1ccc(Cl)cc1)NC(=N)Nc1ccc(Cl)cc1.O=C(O)[C@H](O)[C@@H](O)[C@H](O)[C@H](O)CO.O=C(O)[C@H](O)[C@@H](O)[C@H](O)[C@H](O)CO [CHX, Chlorhexidine digluconate]
Effect on non-enveloped virus (poliovirus): virtually no effect | Reduction of the number of virus particles (herpes virus): 5-6 times | Effect on non-enveloped virus (adenovirus): virtually no effect
